# Patent publication US20240287033A1, “DEGRADERS OF TISSUE TRANSGLUTAMINASE 2 (TG2)” (Northwestern University, priority 2023, published 2024)
# “Also recorded” adds a separate entry of the source.
# Assays:
# SKOV3 cells [1] = test: Wound-healing (scratch) assay, SKOV3; assay type: cell-based
# Protocol: (§1) For the scratch assay, confluent 6-well plates were scratched with a pipette tip, washed and treated with compounds or vehicle. The plate was photographed at set time points and the area of wound closure was quantified with ImageJ. Cell migration was assessed by using Transwell inserts (8 μm pore size, Merck-Millipore, Watford, UK). Briefly, 15,000 cells were seeded in the upper chambers of trans-wells in serum-free media containing compounds or control, while media containing 10% serum was added to the lower chamber. After 18 hours, cells invaded through the transwells were fixed with warm 4% PFA for 20 min at room temperature and stained with crystal violet for 3 min. The membranes were removed, mounted on cover slides and cells were counted using a microscope at 40× magnification.
# TG2 [2] = molecular target: T1, TG2 (Homo sapiens, UniProt P21980); test: Western blot analysis of TG2 degradation in SKOV3 cells; assay type: cell-based; conditions: for TG2 degradation (western blot): 6 hours, up to 10 μM; for TG2 degradation with proteasome inhibitor MG132 co-treatment: MG132 20 μM 8 hrs
# T1 construct: tested in multiple ovarian cancer cell lines that express TG2 for their ability to degrade the protein; endogenous in cells; host or cells: OVCAR5 and SKOV3 ovarian cancer cells
# T1 sequence (P21980 1-687): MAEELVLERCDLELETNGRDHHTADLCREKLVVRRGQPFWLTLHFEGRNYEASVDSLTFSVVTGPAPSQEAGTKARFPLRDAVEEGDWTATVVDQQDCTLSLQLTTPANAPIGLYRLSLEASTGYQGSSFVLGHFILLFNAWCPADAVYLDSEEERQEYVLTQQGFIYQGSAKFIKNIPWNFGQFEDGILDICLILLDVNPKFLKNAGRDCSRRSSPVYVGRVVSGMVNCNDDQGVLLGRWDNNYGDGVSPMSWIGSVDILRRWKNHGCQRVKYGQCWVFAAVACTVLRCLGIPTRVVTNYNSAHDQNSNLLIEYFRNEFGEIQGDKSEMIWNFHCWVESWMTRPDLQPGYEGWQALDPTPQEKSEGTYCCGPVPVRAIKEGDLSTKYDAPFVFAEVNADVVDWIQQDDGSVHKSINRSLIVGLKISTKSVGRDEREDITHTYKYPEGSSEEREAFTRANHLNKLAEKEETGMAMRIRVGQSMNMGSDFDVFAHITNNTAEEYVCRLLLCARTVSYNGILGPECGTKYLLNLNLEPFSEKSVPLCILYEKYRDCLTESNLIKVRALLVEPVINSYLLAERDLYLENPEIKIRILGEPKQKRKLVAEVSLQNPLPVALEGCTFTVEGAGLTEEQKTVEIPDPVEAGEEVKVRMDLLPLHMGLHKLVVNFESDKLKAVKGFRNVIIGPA
# Protocol: (§2) SKOV3 cells were purchased from ATCC. OVCAR5 cells were obtained from Dr. Marcus Peter at Northwestern University. Cells were maintained at 37° C. in an environment of 5% CO2 and 100% humidity. The media used for culturing the cell lines are included in Table 1. Cells lines used in all experiments were at low-passages and were confirmed to be pathogen and mycoplasma-free by Charles River Animal Diagnostic Services. Cell lines were authenticated by IDEXX BioAnalytics with short tandem repeat (STR) profiling. MG132 was obtained from SelleckChem. Anti-TG2 antibody (cat #: MAB3839-I-100UG) was purchased from Millipore Sigma, GAPDH antibody (cat #: H86504M) was purchased from Meridian Bioscience.
# (§3) Briefly, SKOV3 and OVCAR5 cells were seeded on 6 cm dishes and treated with different concentrations of compounds at different time points. Proteins were extracted using RIPA buffer and quantified using the Bradford assay. After gel electrophoresis and transfer, PDVF membranes were blocked with TBS-Tween 5% BSA for one hour and incubated with primary antibodies 20 (1:1000 dilution, overnight at 4° C.). After incubation with the secondary antibody (anti rabbit/mouse-horseradish peroxidase 1:1000 dilution) for 1 h at room temperature, signal was developed using SuperSignal West Pico PLUS Chemiluminescent Substrate (Thermo Fisher Scientific cat #: 34580) and captured with an ImageQuant LAS 4000 machine. To detect additional proteins, membranes were treated with Restore Western Blot Stripping Buffer (Thermo Fisher Scientific cat #: 21059), blocked, and then incubated with primary antibody.
# SKOV3 cells [3] = test: Solid phase adhesion assay on fibronectin, SKOV3; assay type: cell-based
# Protocol: (§4) Briefly, wells were coated with 10 μg/ml fibronectin diluted in PBS for one hour. 30,000 cells pretreated with compounds for 6 hours were seeded and allowed to attach for 30 minutes. After washing with PBS to remove unattached cells, cells adhering to coated wells were quantified by using the CCK-8 assay (ApexBio), following the manufacturer's protocol. Relative absorbance measured at 496 nm was used to estimate the relative number of the cell attached to fibronectin coated wells.
# OVCAR5 cells [4] = test: Wound-healing (scratch) assay, OVCAR5; assay type: cell-based
# Protocol: as §1
# TG2 [5] = molecular target: T1, TG2; test: Western blot analysis of TG2 degradation in OVCAR5 cells; assay type: cell-based; conditions: for TG2 degradation (western blot): 6 hours, 0.1-10 μM
# Protocol: as §2, §3
# OVCAR5 cells [6] = test: Solid phase adhesion assay on fibronectin, OVCAR5; assay type: cell-based
# Protocol: as §4
# OVCAR5 cells [7] = test: Transwell migration assay, OVCAR5; assay type: cell-based
# Protocol: as §1
# SKOV3 cells [8] = test: Cell viability assay (CCK-8), SKOV3; assay type: cell-based; conditions: 0.1-30 μM, 5 days
# Protocol: (§5) The numbers of viable cells were quantified by using the CCK-8 assay (ApexBio) following the manufacturer's directions. Absorbance was measured by a spectrophotometer at 495 nm and used estimate the viability of the cells.
# full-length TG2 = molecular target: T2, full-length TG2 (Homo sapiens, UniProt P21980); test: Isothermal titration calorimetry (ITC) binding to TG2
# T2 sequence (P21980 1-687): T1 sequence (P21980 1-687)
# Protocol: Sample Preparation. Protein dilutions in PBS with 1% DMSO were prepared from stock solutions of […] in PBS. The protein dilutions were initially equilibrated on ice for 5 min, then for 20 min at 30° C. The solutions were filtered using a […] Millipore centrifugal device just prior to insertion in the ITC cell. The solubility of the protein solutions was confirmed independently by DLS (data not shown), and the concentration of each solution (after filtration) was measured with a NanoDrop 2000 Instrument.
# All compound dilutions were made in PBS, and the final DMSO concentration in each solution was carefully adjusted to 1%.
# ITC Experiments. All ITC experiments were performed on an Affinity Low Volume instrument (Waters/TA Instruments) equipped with a fixed 198 μL gold cell. In each experiment, 320 μL of protein solution was loaded into the ITC cell, and 200 μL of the corresponding compound was in the syringe. The data were acquired using ITCRun data acquisition software. The incremental ITC experiments consisted of multiple 2 μL injections at 50-350-second intervals with a stirring speed of 100 revolutions per minute (rpm). The Auto Equilibrate function allowed for the equilibration of the baseline to a peak-to-peak standard deviation of less than 12 nW. For each compound, separate control experiments were performed to evaluate the heat of dilution. The control experiments were set with identical parameters but performed with reaction buffer instead of protein in the ITC cell and consisted of fewer (6-10) injections.
# Data Analysis. ITC data were analyzed with Nano Analyze Software (Waters/TA Instruments) using the “independent sites” model after correction for heats of dilution.
# OVCAR5 cells [9] = test: Cell viability assay (CCK-8), OVCAR5; assay type: cell-based; conditions: 0.1-30 μM, 5 days
# Protocol: as §5
# SKOV3 cells [10] = test: Transwell migration assay, SKOV3; assay type: cell-based
# Protocol: as §1
# [11] = 10 μM compound 6 hrs, 10 μM VHL ligand
# [12] = dosed every 6-8 hours over 24 hours, 1 or 10 μM
SMILES,"cell migration, wound-healing assay (SKOV3 cells [1])",TG2 degradation (western blot) (TG2 [2]),adhesion of cells to fibronectin (SKOV3 cells [3]),"cell migration, wound-healing assay (OVCAR5 cells [4])",TG2 degradation (western blot) (TG2 [5]),adhesion of cells to fibronectin (OVCAR5 cells [6]),TG2 degradation with proteasome inhibitor MG132 co-treatment (TG2 [2]; 10 μM compound 6 hrs),TG2 degradation with VHL ligand as competitive inhibitor (TG2 [2]; [11]),"TG2 levels after longer treatment (western blot) (TG2 [2]; 24 hours, single dosing)",TG2 levels at 24 hours after repeated dosing (TG2 [2]; [12]),time of maximal TG2 degradation (TG2 [2]; higher concentrations (10 and 30 μM)) [h],"cell migration, transwell migration assay (OVCAR5 cells [7])",cell death / viability (SKOV3 cells [8]),decrease in affinity relative to the parental compound MT4 (full-length TG2; ITC KD ratio versus MT4) [fold],"Kd (full-length TG2; titration into TG2 at 30° C., PBS with 1% DMSO, read-out: equilibrium dissociation constant KD (ITC)) [µM]",TG2 degradation with VHL ligand as competitive inhibitor (TG2 [5]; [11]),"TG2 levels after longer treatment (western blot) (TG2 [5]; 24 hours, single dosing)",TG2 levels at 24 hours after repeated dosing (TG2 [5]; [12]),cell death / viability (OVCAR5 cells [9]),"cell migration, transwell migration assay (SKOV3 cells [10])"
"Cc1cc(N(C)CCOCCOCCOCCOCCOCCC(=O)N[C@H](C(=O)N2C[C@@H](O)C[C@H]2C(=O)NCc2ccc(-c3scnc3C)cc2)C(C)(C)C)nc(Nc2ccc(NC(=O)Cc3ccccc3)cc2)n1 [Compound 13, (2S,4S)-1-((S)-22-(tert-butyl)-2-(6-methyl-2-((4-(2-phenylacetamido)phenyl)amino)pyrimidin-4-yl)-20-oxo-5,8,11,14,17-pentaoxa-2,21-diazatricosan-23-oyl)-4-hydroxy-N-(4-(4-methylthiazol-5-yl)benzyl)pyrrolidine-2-carboxamide]",did not affect cell migration,did not induce TG2 degradation; also recorded: No degradation of TG2 was observed,did not affect,did not affect cell migration,did not induce TG2 degradation; also recorded: No degradation of TG2 was observed,did not affect,,,,,,,,,,,,,,
Cc1cc(N(C)CCOCCOCCOCCSC(C)(C)[C@H](NC(=O)C2(F)CC2)C(=O)N2C[C@H](O)C[C@H]2C(=O)NCc2ccc(-c3scnc3C)cc2)nc(Nc2ccc(NC(=O)Cc3ccccc3)cc2)n1 [Compound P404],reduce the migration,degrade TG2,reduce the migration and adhesion capability,,,,blocked,,,,,,,,,,,,,
"Cc1cc(N(C)CCOCCOCCOCCOCCOCCC(=O)N[C@H](C(=O)N2C[C@H](O)C[C@H]2C(=O)NCc2ccc(-c3scnc3C)cc2)C(C)(C)C)nc(Nc2ccc(NC(=O)Cc3ccccc3)cc2)n1 [Compound 11, (2S,4R)-1-((S)-22-(tert-buty)-2-(6-methyl-2-((4-(2-phenylacetamido)phenyl)amino)pyrimidin-4-yl)-20-oxo-5,8,11,14,17-pentaoxa-2,21-diazatricosan-23-oyl)-4-hydroxy-N-(4-(4-methylthiazol-5-yl)benzyl)pyrrolidine-2-carboxamide]",similarly inhibited the migration,significantly reduced the level of TG2; also recorded: Degradation of TG2 was observed,significantly reduced the adhesion,potently inhibited the migration,significantly reduced the level of TG2; also recorded: Degradation of TG2 was observed,significantly reduced the adhesion,,prevented degradation of TG2; also recorded: but not when combined with VHL ligand,did not induce reduction in TG2 levels,persistent and dose-dependent decreased TG2 levels,6,potently inhibited the migration,No significant cell death; also recorded: no cell death was observed,8.8,68.9,prevented degradation of TG2,did not induce reduction in TG2 levels,persistent and dose-dependent decreased TG2 levels,No significant cell death; also recorded: no cell death was observed,similarly inhibited the migration
Cc1cc(N(C)CCOCCSC(C)(C)[C@H](NC(=O)C2(F)CC2)C(=O)N2C[C@H](O)C[C@H]2C(=O)NCc2ccc(-c3scnc3C)cc2)nc(Nc2ccc(NC(=O)Cc3ccccc3)cc2)n1 [Compound P405],reduce the migration,degrade TG2,reduce the migration and adhesion capability,,,,blocked,,,,,,,,,,,,,
"Cc1cc(N(C)CCOCCC(=O)N[C@H](C(=O)N2C[C@@H](O)C[C@H]2C(=O)NCc2ccc(-c3scnc3C)cc2)C(C)(C)C)nc(Nc2ccc(NC(=O)Cc3ccccc3)cc2)n1 [Compound 12, (2S,4S)-1-((S)-3,3-dimethyl-2-(3-(2-(methyl(6-methyl-2-((4-(2-phenylacetamido)phenyl)amino)pyrimidin-4-yl)amino)ethoxy)propanamido)butanoyl)-4-hydroxy-N-(4-(4-methylthiazol-5-yl)benzyl)pyrrolidine-2-carboxamide]",did not affect cell migration,did not induce TG2 degradation; also recorded: No degradation of TG2 was observed,did not affect,did not affect cell migration,did not induce TG2 degradation; also recorded: No degradation of TG2 was observed,did not affect,,,,,,,,,,,,,,
